Tests used:
sciatic nerve ligation [1] = assay: Mechanical allodynia after sciatic nerve ligation (neuropathic pain model), Dynamic Plantar Aesthesiometer; assay type: in vivo, mice of the C57BL/6J strain; conditions: alone
Protocol: The experiments were carried out by using male mice of the C57BL/6J strain with a weight ranging between 25 and 30 g; 10 animals per group were used. The animals were anesthetized with sodium pentobarbital (60 mg/kg, i.p.) and subjected to a surgical procedure of sciatic nerve ligation capable of inducing neuropathic pain in accordance with the method described by Bennet and Xie (1988, Pain; 33:87-107). Sham animals were used as a control. The products were administered p.o. with a tube, suspended in 2% CarboxymethylCellulose. The mechanical allodynia was measured by using the Dynamic Plantar Aesthesiometer equipment of the Company Ugo Basile-Varese, Italy. The values in the table are referred to the weight, expressed in grams, to which the animal object of the experiment, subjected thereto, withdraws its paw when feeling pain.

carrageenan [2] = assay: Carrageenan (CAR) test, hyperalgesic response, paw withdrawal latency (Plantar Test); assay type: in vivo, Wistar male rats; conditions: for lengthening of the retraction time compared to the control: 5 mg/kg, individually administered (FIG. 2b); for increase of latency time after CAR: all time points (FIG. 3b)
Protocol: The carrageenan (CAR) test was performed according to a protocol that provides intra-plantar injection of carrageenan in rats and administration of the active ingredient orally by gavage. This is a standard inflammation test. The 1% (weight/volume) carrageenan solution (Sigma) was prepared in sterile saline and subsequently kept at 37° C. for 1 hour to obtain complete solubilization. The paw edema was induced in Wistar male rats by injecting 200 μl of carrageenan into the plantar aponeurosis of the right hind paw. Hyperalgesic response to heat was measured at various time points (0, 30 min, 1, 2, 3, 4, 5 and 6 h) in accordance with the method described by Hargreaves et al. (Pain, 32 (1988), 77-88) using the Plantar Test 7371 (Ugo Basile, Italy). In short, the animals were allowed to move freely in an open transparent plastic chamber. After a period of acclimatization, a heat source radiating infrared light (IR 60) was placed under the glass floor and concentrated on the hind paw. When the animal felt pain and withdrew its paw, the source was turned off and the time measured was recorded.

sciatic nerve ligation [3] = conditions: 100 mg/kg; cited from earlier work
carrageenan [4] = assay: Carrageenan (CAR) test, paw edema volume by plethysmometer; assay type: in vivo, Wistar male rats; conditions: for effect on the formation of the edema by carrageenan (paw volume): 5 mg/kg orally, alone, 30 minutes to 6 hours after carrageenan (FIG. 2a); for reduction of the volume of the legs after CAR: all time points (FIG. 3a)
Protocol: The carrageenan (CAR) test was performed according to a protocol that provides intra-plantar injection of carrageenan in rats and administration of the active ingredient orally by gavage. This is a standard inflammation test. The 1% (weight/volume) carrageenan solution (Sigma) was prepared in sterile saline and subsequently kept at 37° C. for 1 hour to obtain complete solubilization. The paw edema was induced in Wistar male rats by injecting 200 μl of carrageenan into the plantar aponeurosis of the right hind paw. The increase in size of the treated paw was measured prior to induction and 30 minutes after injection of the inflammatory agent using a plethysmometer (model 7140; Ugo Basile). The subsequent paw size measurements were taken at 60-minute intervals with respect to the first measurement, for a total of 7 measurements. The difference between the values obtained from the treated animals and the control animals was calculated and assessed statistically for all six hours.

sciatic nerve ligation [5] = conditions: 10 mg/kg; cited from earlier work

CC(=O)O[C@H](CC(=O)[O-])C[N+](C)(C)C [LAC, L-Acetylcarnitine]
alleviation of the neuropathic pain (mechanical allodynia) (sciatic nerve ligation [1]; 10 mg/kg p.o.): do not cause a significant activity | alleviation of the neuropathic pain (mechanical allodynia) (sciatic nerve ligation [1]; 100 mg/kg p.o.): significant alleviation | lengthening of the retraction time compared to the control (carrageenan [2]): do not show any effect | increase of latency time after CAR (carrageenan [2]; LAC 3.0 mg/kg oral): did not achieve a significant increase | increase of latency time after CAR (carrageenan [2]; LAC 5.0 mg/kg oral): did not achieve a significant increase | mechanical allodynia (sciatic nerve ligation [3]): decrease the mechanical allodynia | effect on the formation of the edema by carrageenan (paw volume) (carrageenan [4]): does not have a significant effect | reduction of the volume of the legs after CAR (carrageenan [4]; LAC 3.0 mg/kg oral): did not achieve a significant reduction | reduction of the volume of the legs after CAR (carrageenan [4]; LAC 5.0 mg/kg oral): did not achieve a significant reduction

CCCCCCCCCCCCCCCC(=O)NCCO [PEA-m, palmitoylethanolamide]
lengthening of the retraction time compared to the control (carrageenan [2]): do not show any effect | effect on the formation of the edema by carrageenan (paw volume) (carrageenan [4]): does not have a significant effect

CCCCCCCCCCCCCCCC(=O)NCCO [PEA-um, palmitoylethanolamide]
alleviation of the neuropathic pain (mechanical allodynia) (sciatic nerve ligation [1]; 5 mg/kg p.o.): do not cause a significant activity | alleviation of the neuropathic pain (mechanical allodynia) (sciatic nerve ligation [1]; 10 mg/kg p.o.): significant alleviation

CCCCCCCCCCCCCCCC(=O)NCCO [palmitoylethanolamide]
effect in the neuropathic pain model (sciatic nerve ligation [5]): particularly relevant effect

Reference: patent US12364678B2, “Pharmaceutical composition comprising palmitoylethanolamide and L- Acetylcarnitine” (EPITECH GROUP S.P.A., priority 2014, dated 2025)
